Data from patent US20230115176A1 (Ra Pharmaceuticals, Inc., priority 2019, published 2023).
pIC50, pKd: −log10 of the molar value. Converted amounts (≈) assume the structure as drawn.

How the values were obtained:
[1] = Kinetic solubility in PBS pH 7.4, HPLC-UV (Example 21, Table 27); format: physicochemical; conditions: phosphate buffered saline, aqueous buffer, kinetic from dmso stock, 0.5 M PBS, shaken minimum 24 h at approximately 25° C., HPLC-UV 270 nm
Summary of the method: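 10 mM DMSO stock diluted into 0.05 M PBS pH 7.4 (5% DMSO final), in triplicate, shaken ≥24 h at ~25 °C, then filtered by centrifugation. Supernatant concentration by HPLC-UV at 270 nm against external DMSO standards (15.6–500.0 μM).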

Human C5 [2] = target: T1, Human C5 (Homo sapiens, UniProt P01031); assay: Red blood cell (RBC) hemolysis assay, luminescent (Example 13, Table 22); format: cell-based; conditions: sheep EA cells, […] C5-depleted human serum, 0.5 nM human C5, 1 hour 37° C., luminescence
T1 construct: purchased Complement Technology
Description: Compound CU0136 is a racemic mixture of Compound CU0186 and CU0187. Numbers in parenthesis following compound numbers indicate alternate enantiomers (as distinguished by retention time during chromatographical separation).

[3] = Permeability assay, unidirectional transport, Papp (Example 30, Table 34); format: in vitro ADME, canine; conditions: dog, pH 7.4; MDCK-WT cell monolayers, A-to-B, 3 μM test compound, 37° C., duplicate determinations
Description: (§1) Permeability assays were carried out to provide a preliminary indication of suitability for oral dosing and compound permeability across the blood brain barrier. Unidirectional and bidirectional compound transport across Madin Darby canine kidney (MDCK) cell monolayers was assessed. For unidirectional transport assessment, transport across MDCK wild type (MDCK-WT) cell monolayers was assessed. For bidirectional transport, transport across MDCK-MDR1 cell monolayers was assessed. MDCK-MDR1 cells express the MDR1 gene encoding the P-glycoprotein (P-gp) efflux protein.
(§2) MDCK-WT and MDCK-MDR1 cells were plated onto permeable polycarbonate supports in 12-well Costar transwell plates and allowed to grow and differentiate for 3 days. After 3 days in culture, the culture medium (DMEM supplemented with 10% FBS) was removed from both sides of the transwell inserts and cells were rinsed with warm HBSS. After the rinse step, the chambers were filled with warm transport buffer (HBSS containing 10 mM HEPES, 0.25% BSA, pH 7.4) and the plates were pre-incubated at 37° C. for 30 minutes prior to TEER (Trans Epithelial Electric Resistance) measurements.
(§3) The buffer in the donor chamber (apical side for A-to-B assay, basolateral side for B-to-A assay) was removed and replaced with the working solution (3 μM test compound and 10 μM for control compounds in transport buffer). The plates were then placed at 37° C. under light agitation. At designated time points (30, 60 and 90 min), an aliquot of transport buffer from the receiver chamber was removed and replenished with fresh transport buffer. Samples were quenched with ice-cold ACN containing internal standard and then centrifuged to pellet protein. Resulting supernatants were further diluted with 50/50 ACN/H2O (Atenolol diluted in just water) and submitted for LC-MS/MS analysis. Apparent permeability (Pap) values were calculated from duplicate determinations. Atenolol and propranolol were tested as low and […] permeability references.
Papp values indicate extent of compound permeation across monolayers.

[4] = tested on: P-glycoprotein (P-gp, MDR1); assay: Permeability assay, bidirectional transport, efflux ratio (Example 30, Table 34); format: in vitro ADME, canine; conditions: dog, MDCK-MDR1, pH 7.4; read-out: MDCK-MDR efflux ratio
Description: as §1, §2, §3
Efflux ratios were calculated for bidirectional transport across MDCK-MDR1 cell monolayers as an indication of compound efflux by P-gp. The efflux ratio is calculated using the ratio of mean Papp values for B to A transport to mean Papp values for A to B transport [Papp(BA)/Papp(AB)].

[5] = target: T2, human C5 complement protein (Homo sapiens, UniProt P01031); assay: Surface plasmon resonance (SPR), immobilized human C5, 37° C. (Example 18, Table 24); format: binding; conditions: lowest value obtained where a range of concentrations was analyzed
[6] = target: T2, human C5 complement protein; assay: Surface plasmon resonance (SPR), immobilized human C5, 37° C. (Example 23, Table 28); format: binding; conditions: lowest value obtained where a range of concentrations was analyzed (Table 28)
Human C5 [7] = target: T1, Human C5; assay: Red blood cell (RBC) hemolysis assay, luminescent (Example 24, Table 29); format: cell-based; conditions: sheep EA cells, […] C5-depleted human serum, 0.5 nM human C5, 1 hour at 37° C., luminescence (Table 29)
Description: (§4) Numbers in parenthesis following the compound number indicate alternate enantiomers (as distinguished by retention time during chromatographical separation).

Human C5 [8] = target: T1, Human C5; assay: Red blood cell (RBC) hemolysis assay, luminescent (Example 28, Table 32); format: cell-based; conditions: sheep EA cells, 1.5% C5-depleted human serum, 0.5 nM human C5, 1 hour at 37° C., luminescence (Table 32)
[9] = target: T2, human C5 complement protein; assay: Surface plasmon resonance (SPR), immobilized human C5, 37° C. (Example 27, Table 31); format: binding; conditions: lowest value obtained where a range of concentrations was analyzed (Table 31)
[10] = tested on: CD59-deficient RBCs from patients with paroxysmal nocturnal hemoglobinuria (PNH); assay: Hemolysis inhibition with PNH patient cells, flow cytometry for CD59 and plate assay (Example 6); format: cell-based, human; conditions: FIG. 2
Description: Flow cytometry studies were carried out to assess the ability of compounds to inhibit hemolysis of CD59-deficient RBCs from patients with paroxysmal nocturnal hemoglobinuria (PNH). […] To induce hemolysis, donor-matched serum was acidified to pH 6.4 with HCl. Compounds, serum, and RBCs, 2.5% volume per volume (v/v), were incubated for 18 hours at 37° C. After incubation, cells were washed and re-suspended in 1 ml fluorescence-associated cell sorting (FACS) buffer (0.1% BSA IgG-free in PBS, 0.1% Sodium Azide). Then, anti-CD59 antibody conjugated with phycoerythrin was added at a final concentration of 0.25 μg/ml to 100 μl of cell suspension and incubated at 4° C. for 30 minutes. Cells were then washed twice with cold FACS buffer, re-suspended in FACS buffer and analyzed with a BD Accuri C6 Flow Cytometer (BD Biosciences, San Jose, Calif.) for CD59 levels. The level of CD59-positive cells was monitored as a measure of complement-mediated hemolysis of PNH type III cells. A negative control using non-acidified serum was used to establish a baseline of CD59 expression under non-hemolytic conditions (FIG. 1A).

Human C5 [11] = target: T1, Human C5; assay: Surface plasmon resonance (SPR), compounds on immobilized human C5 (Example 2, Table 5); format: binding; conditions: lowest value where a range of compound concentrations were analyzed
purified human C5 = purified human C5 (Homo sapiens, UniProt P01031); assay: Red blood cell hemolysis assay, optical, absorbance 412 nm (Example 3, Table 6); format: cell-based; conditions: antibody-sensitized sheep erythrocytes, 1.5% human C5 depleted sera, 0.5 nM human C5; average where replicates
Human C5 [12] = target: T1, Human C5; assay: Hemolysis assay, luminescent, classical complement pathway (Example 4, Table 7); format: cell-based; conditions: sheep EA cells, 1.5% C5-depleted human serum, 0.5 nM human C5, luminescence readout
Description: as §4

[13] = Drug-Metabolism-and-Pharmacokinetics (DMPK), single IV and oral dose in rats (Example 5); conditions: rat, in vivo; fasted male Sprague Dawley rats, 1 mg/kg IV and 10 mg/kg PO, 5% DMSO: 20% HP-Beta-CD
Description: Single intravenous (IV) and oral dose (P0, per oral) administration of C5 inhibitors were carried out in rats. Rats were then analyzed for Drug-Metabolism-and-Pharmacokinetic (DMPK) properties, used to determine the pharmacokinetics and oral bioavailability of the C5 inhibitors.
SM0011 was formulated as a clear solution at 1 mg/mL in 5% DMSO: 20% HP-Beta-CD. Fasted male Sprague Dawley rats were dosed with the solution at 1 MPK (mg/kg) IV and 10 MPK (mg/kg) PO. Analysis of the DMPK properties of the compound were used to determine the bioavailability.

T2 sequence (P01031 19-1676): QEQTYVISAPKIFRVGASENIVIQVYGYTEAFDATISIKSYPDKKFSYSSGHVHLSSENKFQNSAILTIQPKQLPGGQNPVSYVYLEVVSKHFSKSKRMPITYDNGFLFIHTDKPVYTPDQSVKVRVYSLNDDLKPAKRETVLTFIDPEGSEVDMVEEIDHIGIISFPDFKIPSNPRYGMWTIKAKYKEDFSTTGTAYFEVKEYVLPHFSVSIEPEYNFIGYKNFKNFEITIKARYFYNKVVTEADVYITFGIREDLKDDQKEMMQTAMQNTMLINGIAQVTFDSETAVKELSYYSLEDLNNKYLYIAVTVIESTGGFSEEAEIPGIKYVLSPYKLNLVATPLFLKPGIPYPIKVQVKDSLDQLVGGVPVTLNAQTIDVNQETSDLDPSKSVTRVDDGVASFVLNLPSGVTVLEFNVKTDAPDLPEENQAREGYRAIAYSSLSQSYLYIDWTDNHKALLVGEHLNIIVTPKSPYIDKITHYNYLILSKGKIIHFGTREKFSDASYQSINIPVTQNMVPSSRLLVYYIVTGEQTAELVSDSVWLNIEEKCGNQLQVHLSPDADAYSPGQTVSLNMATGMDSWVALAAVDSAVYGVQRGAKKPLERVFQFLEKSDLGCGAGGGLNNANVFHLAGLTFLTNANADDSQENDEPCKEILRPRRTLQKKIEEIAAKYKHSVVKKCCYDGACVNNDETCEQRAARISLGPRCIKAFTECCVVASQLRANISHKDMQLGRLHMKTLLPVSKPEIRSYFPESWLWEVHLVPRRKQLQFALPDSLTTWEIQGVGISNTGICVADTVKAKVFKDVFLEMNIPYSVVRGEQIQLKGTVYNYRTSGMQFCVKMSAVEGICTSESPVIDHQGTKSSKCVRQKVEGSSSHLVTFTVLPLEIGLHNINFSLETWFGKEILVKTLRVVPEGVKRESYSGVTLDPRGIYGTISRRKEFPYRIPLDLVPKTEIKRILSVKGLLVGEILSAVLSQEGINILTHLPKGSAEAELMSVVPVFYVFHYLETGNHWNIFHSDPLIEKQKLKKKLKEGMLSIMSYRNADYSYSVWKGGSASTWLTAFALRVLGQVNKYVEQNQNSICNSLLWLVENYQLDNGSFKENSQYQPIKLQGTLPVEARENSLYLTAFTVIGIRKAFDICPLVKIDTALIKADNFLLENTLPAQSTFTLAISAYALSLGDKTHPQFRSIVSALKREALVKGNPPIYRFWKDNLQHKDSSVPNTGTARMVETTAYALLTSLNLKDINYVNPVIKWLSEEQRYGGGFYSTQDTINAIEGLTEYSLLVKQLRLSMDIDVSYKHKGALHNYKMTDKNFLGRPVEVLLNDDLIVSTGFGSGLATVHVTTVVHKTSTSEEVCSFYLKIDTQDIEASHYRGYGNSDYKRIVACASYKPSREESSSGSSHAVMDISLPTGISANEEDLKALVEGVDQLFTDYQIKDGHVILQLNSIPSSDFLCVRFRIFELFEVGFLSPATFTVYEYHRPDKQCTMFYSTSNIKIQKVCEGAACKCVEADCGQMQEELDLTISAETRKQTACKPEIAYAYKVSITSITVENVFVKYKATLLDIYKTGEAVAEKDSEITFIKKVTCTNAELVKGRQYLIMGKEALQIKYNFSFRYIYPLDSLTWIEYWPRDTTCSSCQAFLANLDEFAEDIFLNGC
T1 sequence (P01031 19-1676): as above
Chain of purified human C5 (P01031 19-1676): as above

SMILES	solubility kinetic [1] [µM]	Papp A→B at 3 μM [3] [×10⁻⁶ cm/s]	efflux ratio at 3 μM [4]	also measured
COc1cc(CC(=O)N(C)C)ccc1CN1CCCN(c2ccc(OC)c(OCCCC(C)(F)F)c2)C1=O [CU0140]	404 (≈ 216 µg/mL)	26	63	pIC50 (Human C5 [2]): 7.80
CCCCCOc1cc(N2CCCN(Cc3ccc(CNC(C)=O)cc3OC)C2=O)ccc1OC [CU0160]	413 (≈ 200 µg/mL)	21.6	61	pIC50 (Human C5 [2]): 7.63
CCCCCOc1cc(N2CCCN(Cc3ccnc4c3c(Cl)cn4CC(=O)N(C)C)C2=O)ccc1OC [CU0261]	31 (≈ 16.8 µg/mL)	26.1	17	pIC50 (Human C5 [2]): 7.96
COc1cc(CNC(C)=O)ccc1CN1CCCN(c2ccc(OC)c(OCCCC3CC3)c2)C1=O [CU0501]	195 (≈ 96.6 µg/mL)	24.2	60	
CCCCCOc1cc(N2CCCN(Cc3ccnc4c3c(Cl)cn4CC(=O)N3C[C@H]4C[C@@H]3CO4)C2=O)ccc1OC [CU0510]		22.7	71	
CCCCCOc1cc(N2CCCN(Cc3ccnc4c3c(Cl)cn4CC(=O)N(C)C)C2=O)ncc1OC [CU0558]	271 (≈ 147 µg/mL)	25.2	9	pKd [5]: 9.82
CCCCCOc1cc(N2CCCN(Cc3ccnc4c3c(Cl)cn4CC(=O)N(C)C)C2=O)cnc1OC [CU0616]		29	18	
COc1ccc(N2CCCN(Cc3ccnc4c3c(Cl)cn4CC(=O)N(C)C)C2=O)cc1Br [CU0689]		23.8	8	
CCCCCOc1cc(N2CC3(CC3)CN(Cc3ccccc3OC)C2=O)ccc1OC [SC0064]				pKd [6]: 7.95; pIC50 (Human C5 [7]): 7.63
CCCCCOc1cc(N2CC3(COC3)CN(Cc3ccccc3OC)C2=O)ccc1OC [SC0066]				pKd [6]: 7.36; pIC50 (Human C5 [7]): 7.40
CCCCCOc1cc(N2CC[C@H](C)N(Cc3ccnc4c3c(Cl)cn4CC(=O)N3CC[C@H](N4CCOCC4)C3)C2=O)ccc1OC [SC0100]		14.3	62	pIC50 (Human C5 [8]): 9.05
COc1cc(CC(=O)N[C@@H]2CN(C)C[C@@H]2F)ccc1CN1C(=O)N(c2ccc(OC)c(OCCCC3CC3)c2)CC[C@@H]1C [SC0109]		5.7	144	pIC50 (Human C5 [8]): 8.92
COc1ccc(NC(=O)NC(CO)c2ccccc2O)cc1OCCCC(C)C (stereo not shown) [SM0001, 1-(2-hydroxy-1-(2-hydroxyphenyl)ethyl)-3-(4-methoxy-3-((4-methylpentyl)oxy)phenyl)urea]				inhibition of PNH patient hemolysis with increasing concentrations [10]: dose-dependent manner; pKd (Human C5 [11]): 7.31; pIC50 (purified human C5): 7.68
COc1ccc(NC(=O)N[C@@H](CO)c2ccccc2)cc1OCCCC(C)C [SM0011]				pIC50 (Human C5 [12]): 7.22; bioavailability [13]: ~30%; pKd (Human C5 [11]): 6.80; pIC50 (purified human C5): 6.57

The next lines start with results.

solubility kinetic [1] [µM]	Papp A→B at 3 μM [3] [×10⁻⁶ cm/s]	efflux ratio at 3 μM [4]	SMILES	also measured
278 (≈ 160 µg/mL)	16.8	83	COc1cc(CC(=O)N2CCOCC2)ccc1CN1CCCN(c2ccc(OC)c(OCCCC(C)(F)F)c2)C1=O [CU0145]	pIC50 (Human C5 [2]): 7.82
50 (≈ 28.4 µg/mL)	17.1	75	CCCCCOc1cc(N2CCCN(Cc3ccnc4c3c(Cl)cn4CC(=O)N(C)CC#N)C2=O)ccc1OC [CU0529]	pKd [5]: 9.49
	23	15	COc1cc(CC(=O)N(C)C)ccc1CN1CCCN(c2ccc(OC)c(OCCCC3CC3)c2)C1=O [CU0555]	pKd [5]: 8.97
31 (≈ 17.2 µg/mL)	23	23	CCCCCOc1cc(N2CCCN(Cc3ccnc4c3c(Cl)cn4CC(=O)N3CCC3)C2=O)ccc1OC [CU0560]	pKd [5]: 10.27
339 (≈ 164 µg/mL)	23.5	31	CCCCCOc1cc(N2CCCN(Cc3ccc(CNC(C)=O)cc3OC)C2=O)ncc1OC [CU0579]	
	15.3	18	CCCCCOc1cc(N2CC[C@@H](C)N(Cc3cccc4c3c(Cl)cn4CC(=O)N(C)C)C2=O)ccc1OC [SC0110]	pIC50 (Human C5 [8]): 8.89
13 (≈ 7.22 µg/mL)	16.4	12	CCCCCOc1cc(N2CC[C@H](C)N(Cc3cccc4c3c(Cl)cn4CC(=O)N(C)C)C2=O)ccc1OC [SC0112]	pIC50 (Human C5 [8]): 8.89; pKd [9]: 9.55
96 (≈ 56.1 µg/mL)	6.6	98	CCCCCOc1cc(N2CC[C@H](C)N(Cc3ccnc4c3c(Cl)cn4CC(=O)N3CC(O)C3)C2=O)ccc1OC [SC0120]	pIC50 (Human C5 [8]): 8.82; pKd [9]: 11.00
